Values quoted from earlier work, collected in US10507185B2, “Composite structural material and pharmaceutical composition thereof” (INNOVACO PHARMACEUTICALS, INC, priority 2013, dated 2019).

CC(C)n1c(/C=C/C(O)CC(O)CC(=O)O)c(-c2ccc(F)cc2)c2ccccc21 (stereo not shown) [Fluvastatin, fluvastatin]
pKa value: 4.6
